In publication PMC6572064, “Discovery of 2-(1-(3-(4-Chloroxyphenyl)-3-oxo- propyl)pyrrolidine-3-yl)-1H-benzo[d]imidazole-4-carboxamide: A Potent Poly(ADP-ribose) Polymerase (PARP) Inhibitor for Treatment of Cancer” (Molecules, 2019):
Read-outs that look alike come from different tables or passages of the source.

Key:
PARP-2 = target: T1, PARP-2 (Homo sapiens, UniProt Q9UGN5); experiment: PARP-2 inhibition assay (PARP-2 Chemiluminescent Assay Kit, BPS Bioscience); assay type: biochemical; details: for inhibition at 0.01 µM: 10 nM compound
T1 construct: purchased BPS Bioscience 80552
Protocol: (§1) The PARP-1 and PARP-2 inhibition assays were performed in outsourcing, by a CRO company, Shanghai Medicilon Inc. (Shanghai, China). […] Briefly, PARP-1 or PARP-2 biotinylated substrate was incubated with compounds or solvent control at varying concentrations and an assay buffer containing the PARP-1 or PARP-2 enzyme.

[1] = system: CAPAN-1 (a BRCA-2-mutated pancreatic cancer cell line); experiment: Cell proliferation assay, three-day, CellTiter-Glo, CAPAN-1; assay type: cell-based; details: for IC50 / inhibition at 0.00508 µM / inhibition at 0.0152 µM / inhibition at 0.0457 µM / inhibition at […] / inhibition at 0.41 µM / inhibition at 1.23 µM / inhibition at 3.7 µM / inhibition at 11.11 µM / inhibition at 33.33 µM / inhibition at 100 µM: Homo sapiens; for inhibition at 0.00508 µM: CAPAN-1, 0.00508 uM; for inhibition at 0.0152 µM: CAPAN-1, 0.0152 uM; for inhibition at 0.0457 µM: CAPAN-1, 0.0457 uM; for inhibition at […]: CAPAN-1, 0.14 uM; for inhibition at 0.41 µM: CAPAN-1, 0.41 uM; for inhibition at 1.23 µM: CAPAN-1, 1.23 uM; for inhibition at 3.7 µM: CAPAN-1, 3.70 uM; for inhibition at 11.11 µM: CAPAN-1, 11.11 uM; for inhibition at 33.33 µM: CAPAN-1, 33.33 uM; for inhibition at 100 µM: CAPAN-1, 100.00 uM
How it was run: (§2)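 Luminescent ATP read-out (CellTiter-Glo, 60 min at room temperature) quantified viability after a 72 h compound exposure at 37 °C, 5% CO2. Compounds, diluted from DMSO stocks into growth medium, were added to cells plated the previous day.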

[2] = system: MDA-MB-436 (a BRCA-1-mutated breast cancer cell line); experiment: Cell proliferation assay, three-day, CellTiter-Glo, MDA-MB-436; assay type: cell-based; details: for inhibition at 0.00508 µM / inhibition at 0.0152 µM / inhibition at 0.0457 µM / inhibition at 0.41 µM / inhibition at 1.23 µM / inhibition at 3.7 µM / inhibition at 11.11 µM / inhibition at 33.33 µM / inhibition at 100 µM / IC50: Homo sapiens; for inhibition at 0.00508 µM: MDA-MB-436, MDA-MB-436, Conc. 0.00508 uM; for inhibition at 0.0152 µM: MDA-MB-436, MDA-MB-436, Conc. 0.0152 uM; for inhibition at 0.0457 µM: MDA-MB-436, MDA-MB-436, Conc. 0.0457 uM; for inhibition at 0.41 µM: MDA-MB-436, MDA-MB-436, Conc. 0.41 uM; for inhibition at 1.23 µM: MDA-MB-436, MDA-MB-436, Conc. 1.23 uM; for inhibition at 3.7 µM: MDA-MB-436, MDA-MB-436, Conc. 3.70 uM; for inhibition at 11.11 µM: MDA-MB-436, MDA-MB-436, Conc. 11.11 uM; for inhibition at 33.33 µM: MDA-MB-436, MDA-MB-436, Conc. 33.33 uM; for inhibition at 100 µM: MDA-MB-436, MDA-MB-436, Conc. 100.00 uM
How it was run: as §2

PARP-1 = target: T2, PARP-1 (Homo sapiens, UniProt P09874); experiment: PARP-1 inhibition assay (PARP-1 Chemiluminescent Assay Kit, BPS Bioscience); assay type: biochemical; details: for inhibition at 0.01 µM: 10 nM compound
T2 construct: purchased BPS Bioscience 80569
Protocol: as §1

T1 sequence (Q9UGN5 whole entry): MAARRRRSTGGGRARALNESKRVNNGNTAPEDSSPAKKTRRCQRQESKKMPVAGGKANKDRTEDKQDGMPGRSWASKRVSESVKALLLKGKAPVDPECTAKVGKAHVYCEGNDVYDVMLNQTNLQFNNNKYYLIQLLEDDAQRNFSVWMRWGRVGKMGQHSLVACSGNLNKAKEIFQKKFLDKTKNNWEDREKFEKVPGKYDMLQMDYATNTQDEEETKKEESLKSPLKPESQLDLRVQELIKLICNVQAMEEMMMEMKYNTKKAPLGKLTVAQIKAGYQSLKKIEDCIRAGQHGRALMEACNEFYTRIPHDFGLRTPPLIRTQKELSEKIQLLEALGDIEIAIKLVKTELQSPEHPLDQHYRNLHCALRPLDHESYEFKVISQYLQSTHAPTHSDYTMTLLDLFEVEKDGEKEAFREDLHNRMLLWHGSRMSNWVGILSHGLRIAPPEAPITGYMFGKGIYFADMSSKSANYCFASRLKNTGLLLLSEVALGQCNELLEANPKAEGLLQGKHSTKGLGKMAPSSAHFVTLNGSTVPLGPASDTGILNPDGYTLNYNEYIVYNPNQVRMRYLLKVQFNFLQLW
T2 sequence (P09874 whole entry): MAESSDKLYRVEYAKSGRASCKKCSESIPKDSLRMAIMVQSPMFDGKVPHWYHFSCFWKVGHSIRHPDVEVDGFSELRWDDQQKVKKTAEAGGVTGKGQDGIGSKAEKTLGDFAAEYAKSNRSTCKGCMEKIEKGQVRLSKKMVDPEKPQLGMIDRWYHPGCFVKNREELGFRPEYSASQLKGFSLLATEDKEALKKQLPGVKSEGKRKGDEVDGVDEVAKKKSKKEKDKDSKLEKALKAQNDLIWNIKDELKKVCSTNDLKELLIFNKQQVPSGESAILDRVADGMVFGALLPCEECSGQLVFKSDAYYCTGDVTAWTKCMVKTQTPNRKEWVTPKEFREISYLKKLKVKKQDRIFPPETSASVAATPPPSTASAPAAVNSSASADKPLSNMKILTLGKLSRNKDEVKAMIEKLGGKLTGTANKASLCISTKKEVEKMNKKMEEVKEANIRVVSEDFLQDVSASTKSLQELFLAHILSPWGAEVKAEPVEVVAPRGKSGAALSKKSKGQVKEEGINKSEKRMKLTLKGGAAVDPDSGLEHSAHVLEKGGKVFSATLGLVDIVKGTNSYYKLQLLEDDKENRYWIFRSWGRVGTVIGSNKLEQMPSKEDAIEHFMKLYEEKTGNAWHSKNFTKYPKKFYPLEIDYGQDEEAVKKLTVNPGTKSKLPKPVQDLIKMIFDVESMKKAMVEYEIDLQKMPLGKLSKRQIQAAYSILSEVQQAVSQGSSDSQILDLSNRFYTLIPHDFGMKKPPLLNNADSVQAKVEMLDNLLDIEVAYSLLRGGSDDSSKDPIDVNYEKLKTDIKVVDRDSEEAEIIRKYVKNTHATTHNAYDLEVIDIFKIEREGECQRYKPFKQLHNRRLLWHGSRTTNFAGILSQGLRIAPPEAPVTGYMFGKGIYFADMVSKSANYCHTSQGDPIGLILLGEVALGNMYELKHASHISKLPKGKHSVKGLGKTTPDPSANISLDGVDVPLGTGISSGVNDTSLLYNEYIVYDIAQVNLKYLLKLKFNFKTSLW

NC(=O)c1cccc2[nH]c(C3CCN(CCC(=O)c4ccc(Cl)cc4)C3)nc12 (centres unmarked) [Compound 5cj]
inhibition at 0.01 µM (PARP-2; supplement sheet, read-out: 10 nM inhibition% PAPR-2): 65.5%
inhibition at 0.01 µM (PARP-2; read-out: PARP-2 Inhibition % (10 nM)): 65.6%
IC50 (PARP-2; read-out: PARP-2 IC50): 4.2 nM
IC50 (PARP-2; supplement sheet, read-out: IC50 PAPR-2): 4.22 nM
LogIC50 ([1]; CAPAN-1, curve-fit output, Log (uM)): 1.057
IC50 ([1]; CAPAN-1, 72 h, CellTiter-Glo, read-out: CAPAN-1 IC50): 11.4 µM
inhibition at 0.00508 µM ([1]; replicate 1, read-out: Inh % 1): 9.5%
inhibition at 0.00508 µM ([1]; replicate 2, read-out: Inh % 2): -1.4%
inhibition at 0.0152 µM ([1]; replicate 1, read-out: Inh % 1): 3.1%
inhibition at 0.0152 µM ([1]; replicate 2, read-out: Inh % 2): -2.2%
inhibition at 0.0457 µM ([1]; replicate 1, read-out: Inh % 1): 3.3%
inhibition at 0.0457 µM ([1]; replicate 2, read-out: Inh % 2): 3.4%
inhibition at […] ([1]; replicate 1, read-out: Inh % 1): 13.7%
inhibition at […] ([1]; replicate 2, read-out: Inh % 2): -6.2%
inhibition at 0.41 µM ([1]; replicate 1, read-out: Inh % 1): 2.9%
inhibition at 0.41 µM ([1]; replicate 2, read-out: Inh % 2): 7.7%
inhibition at 1.23 µM ([1]; replicate 1, read-out: Inh % 1): -2.6%
inhibition at 1.23 µM ([1]; replicate 2, read-out: Inh % 2): 0.5%
inhibition at 3.7 µM ([1]; replicate 1, read-out: Inh % 1): 7.7%
inhibition at 3.7 µM ([1]; replicate 2, read-out: Inh % 2): 2.2%
inhibition at 11.11 µM ([1]; replicate 1, read-out: Inh % 1): 54.1%
inhibition at 11.11 µM ([1]; replicate 2, read-out: Inh % 2): 45.1%
inhibition at 33.33 µM ([1]; replicate 1, read-out: Inh % 1): 97.9%
inhibition at 33.33 µM ([1]; replicate 2, read-out: Inh % 2): 96.8%
inhibition at 100 µM ([1]; replicate 1, read-out: Inh % 1): 99.6%
inhibition at 100 µM ([1]; replicate 2, read-out: Inh % 2): 98.9%
IC50 ([1]; CAPAN-1, 72 h, supplement Summary sheet, read-out: IC50): 11.4 µM
IC50 ([1]; CAPAN-1, curve-fit output, concentrations in uM, read-out: IC50): 11.4 µM
inhibition at 0.00508 µM ([2]; replicate 1, read-out: Inh % 1): -7.9%
inhibition at 0.00508 µM ([2]; replicate 2, read-out: Inh % 2): -1.6%
inhibition at 0.0152 µM ([2]; replicate 1, read-out: Inh % 1): -3%
inhibition at 0.0152 µM ([2]; replicate 2, read-out: Inh % 2): -9.8%
inhibition at 0.0457 µM ([2]; replicate 1, read-out: Inh % 1): -14.2%
inhibition at 0.0457 µM ([2]; replicate 2, read-out: Inh % 2): -14.3%
inhibition at 0.41 µM ([2]; replicate 1, read-out: Inh % 1): -16.8%
inhibition at 0.41 µM ([2]; replicate 2, read-out: Inh % 2): -14.6%
inhibition at 1.23 µM ([2]; replicate 1, read-out: Inh % 1): -8.7%
inhibition at 1.23 µM ([2]; replicate 2, read-out: Inh % 2): -14.5%
inhibition at 3.7 µM ([2]; replicate 1, read-out: Inh % 1): -10.6%
inhibition at 3.7 µM ([2]; replicate 2, read-out: Inh % 2): -13.6%
inhibition at 11.11 µM ([2]; replicate 1, read-out: Inh % 1): 10.8%
inhibition at 11.11 µM ([2]; replicate 2, read-out: Inh % 2): 8.2%
inhibition at 33.33 µM ([2]; replicate 1, read-out: Inh % 1): 93.8%
inhibition at 33.33 µM ([2]; replicate 2, read-out: Inh % 2): 82.1%
inhibition at 100 µM ([2]; replicate 1, read-out: Inh % 1): 99.7%
inhibition at 100 µM ([2]; replicate 2, read-out: Inh % 2): 98.9%
IC50 ([2]; MDA-MB-436, 72 h, CellTiter-Glo, read-out: MDA-MB-436 IC50): 17.4 µM
IC50 ([2]; MDA-MB-436, 72 h, supplement Summary sheet, read-out: IC50): 17.4 µM
IC50 ([2]; MDA-MB-436, curve fit list, no unit in the cell, concentration in uM, read-out: IC50): 17.4 µM
LogIC50 ([2]; MDA-MB-436, curve fit on Log (uM) concentrations): 1.241
Bottom ([2]; MDA-MB-436, curve fit parameter (Inh %)): -11.12
Top ([2]; MDA-MB-436, curve fit parameter (Inh %), '= 100.0' is a constrained value): 99.53
inhibition at 0.01 µM (PARP-1; supplement sheet, read-out: 10 nM inhibition% PAPR-1): 65.7%
inhibition at 0.01 µM (PARP-1; read-out: PARP-1 Inhibition % (10 nM)): 65.7%
IC50 (PARP-1; read-out: PARP-1 IC50): 3.9 nM
IC50 (PARP-1; supplement sheet, read-out: IC50 PAPR-1): 3.89 nM
